The nature of data set [1]: Particle size distribution by laser diffraction. In kind it is physicochemical. The following applies: SHR0302 used in Example 1, Malvern Hydro MV, ethyl acetate dispersion. An excerpt: In the pharmaceutical compositions of the present invention, the active ingredient is present as small particles. Particle size of the drug can be assessed using laser diffraction methods. Laser diffraction is recognized by standards and guidance agencies including ISO and ASTM and is widely used to determine particle size distributions. In conducting the assessment, the sample is passed through a laser beam, which results in laser light scattered at a range of angles. Detectors placed at fixed angles measure the intensity of light scattered at that position. A mathematical model is then applied to generate a particle size distribution. The particle size values reported herein are determined by using a liquid or wet dispersion method.
In particle size determinations, the median value is defined as the value where half of the population resides above this point, and half resides below this point. For particle size distributions the median is called the D50. The D50 is the size that splits the distribution with half above and half below this diameter. The distribution width may also be characterized by citing one, two or three values on the x-axis, typically some combination of the D10, D50, and D90. The D50, the median, has been defined above as the diameter where half of the population lies below this value. Similarly, 90 percent of the distribution lies below the D90, and 10 percent of the population lies below the D10.
A pharmaceutical composition comprising 3% SHR0302 suspended in dimethicone was prepared. The primary particle size distribution of the SHR0302 is characterized by a D10 value of less than about 0.25 μm; a D50 value of less than about 0.7 μm; and a D90 value of less than about 5 μm. The pharmaceutical composition was a transparent solution due to the particles being too small to scatter visible light. A Malvern Metasizer Model 3000 using the Hydro MV dispersion unit was used to determine the particle size distribution profile of SHR0302. […]

The target in another data set is JAK1 (Homo sapiens, UniProt P23458). The following applies: in words; cited from earlier work.
Sequence of JAK1 (P23458 whole entry): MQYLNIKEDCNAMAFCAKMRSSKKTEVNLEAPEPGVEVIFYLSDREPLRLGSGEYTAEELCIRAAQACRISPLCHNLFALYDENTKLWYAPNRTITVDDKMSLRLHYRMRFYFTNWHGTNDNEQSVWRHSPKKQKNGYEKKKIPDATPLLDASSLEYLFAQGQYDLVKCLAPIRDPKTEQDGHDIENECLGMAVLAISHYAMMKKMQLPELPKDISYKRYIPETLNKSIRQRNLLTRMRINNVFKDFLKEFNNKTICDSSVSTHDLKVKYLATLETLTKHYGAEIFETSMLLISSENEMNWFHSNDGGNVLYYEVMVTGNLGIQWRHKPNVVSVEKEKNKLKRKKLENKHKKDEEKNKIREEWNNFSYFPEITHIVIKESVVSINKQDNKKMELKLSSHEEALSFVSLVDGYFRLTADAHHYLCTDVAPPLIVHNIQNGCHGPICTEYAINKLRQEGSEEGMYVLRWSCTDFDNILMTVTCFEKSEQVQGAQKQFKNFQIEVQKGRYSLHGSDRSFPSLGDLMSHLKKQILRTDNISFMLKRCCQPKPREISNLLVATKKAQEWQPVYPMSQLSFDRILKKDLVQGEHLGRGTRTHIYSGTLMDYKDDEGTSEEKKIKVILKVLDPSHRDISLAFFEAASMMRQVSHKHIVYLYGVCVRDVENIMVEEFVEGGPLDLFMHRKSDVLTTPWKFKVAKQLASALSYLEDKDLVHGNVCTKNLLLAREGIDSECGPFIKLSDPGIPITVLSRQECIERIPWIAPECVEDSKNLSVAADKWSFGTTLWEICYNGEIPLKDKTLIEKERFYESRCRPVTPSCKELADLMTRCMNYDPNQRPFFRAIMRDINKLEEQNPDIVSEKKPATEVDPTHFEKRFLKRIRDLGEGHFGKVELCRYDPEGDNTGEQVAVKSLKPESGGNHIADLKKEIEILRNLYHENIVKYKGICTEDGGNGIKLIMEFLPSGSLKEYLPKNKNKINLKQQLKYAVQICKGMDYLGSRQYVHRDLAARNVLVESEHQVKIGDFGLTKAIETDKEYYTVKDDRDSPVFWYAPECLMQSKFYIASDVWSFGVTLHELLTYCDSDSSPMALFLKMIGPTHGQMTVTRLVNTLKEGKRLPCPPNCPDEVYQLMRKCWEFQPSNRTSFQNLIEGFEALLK
The conditions of data set [2]: orally administered, women; cited from earlier work.

For the compound `COc1nsc(NC(=O)N2C[C@H]3C[C@H](N(C)c4ncnc5[nH]ccc45)C[C@H]3C2)n1` [SHR0302, (3aR,5S,6aS)-N-(3-methoxyl-1,2,4-thiadiazol-5-yl)-5-(methyl(7H-pyrrolo[2,3-d]pyrimidin-4-yl)amino)hexahydrocyclopenta[c]pyrrole-2(1H)-carboxamide], in data set [1], the “primary particle size distribution D10” value is listed as “less than 0.25 μm”, the “primary particle size distribution D50” value is listed as “less than 0.7 μm” and the “primary particle size distribution D90” value was “less than 5 μm”. In addition, at JAK1, the “inhibition of JAK1” value was “potent” and the “selectivity for JAK1 over JAK2” value is on record as “high selectively for JAK1 over JAK2”.
Regarding `CC(=O)S[C@@H]1CC2=CC(=O)CC[C@]2(C)[C@H]2CC[C@@]3(C)[C@@H](CC[C@@]34CCC(=O)O4)[C@H]12` [spironolactone, 17-hydroxy-7α-mercapto-3-oxo-17α-pregn-4-ene-21-carboxylic acid γ-lactone acetate], in data set [2], the “efficacy in treatment of acne” value is reported as “efficacious”.

The values are drawn from US20240382502A1, “COMPOSITIONS AND METHODS FOR DEEP DERMAL DRUG DELIVERY” (ARCUTIS BIOTHERAPEUTICS, INC., priority 2020, published 2024).
